Values of other authors as cited in US20100227930A1 (priority 2009, published 2010).

Experiments:
[1] = species not given
[2] = tested on: Daphnia magna
[3] = tested on: rainbow trout; settings: in vivo
[4] = tested on: algae; settings: duration not given
[5] = tested on: fish; settings: in vivo
[6] = compared with the 2:1:1 blend of three quaternary ammonium compounds

**Q.** Which aquatic acute toxicity [1] does the source give for `COC(C)COC(C)CO` (stereo not drawn) [Dipropylene glycol methyl ether] here?
**A.** The aquatic acute toxicity was greater than 100 mg/L.

**Q.** What does the source list for `O=C([O-])CCC(C(=O)[O-])N(CC(=O)[O-])CC(=O)[O-].[Na+].[Na+].[Na+].[Na+]` (stereo not drawn) [Dissolvine GL, Glutamic acid, N,N Diacetic acid and their Tetrasodium salts]?
**A.** EC50 Daphnia Magna ([2]; duration not given): > 100 µg/mL; EC50 fish (rainbow trout) [3]: > 100 µg/mL; EC50 Algae [4]: > 100 µg/mL

**Q.** With `O=C([O-])CC(NC(CC(=O)[O-])C(=O)[O-])C(=O)[O-].[Na+].[Na+].[Na+].[Na+]` (stereo not drawn) [IDS, iminodisuccinate tetrasodium salt] as the compound, how does the “acute aquatic toxicity fish” value [5] read?
**A.** The value was 82.6 mg/L.

**Q.** What about the “EC0 Daphnia Magna” value ([2]; in vivo) of the same compound?
**A.** Its value is 84 mg/L.

**Q.** What about the “DL50 oral rat acute toxicity” value of the same compound?
**A.** The value was “over 2,000 mg/kg”.

**Q.** What about the “EC50 Algae” value [4] of the same compound?
**A.** The value was 94.5 µg/mL.

**Q.** For `CCCCCCCCCC[N+](C)(C)CCCCCCCCCC.[Cl-]` [didecyl dimethyl ammonium chloride], which water solubility [6] is on record?
**A.** The water solubility was “poorer water solubility”.
